# Measurements: paper PMC11871066, “Structure-based discovery of hydrocarbon-stapled paxillin peptides that block FAK scaffolding in cancer” (Nature Communications, 2025)
# Where two headings read alike, the source gives them in different places.
# Experiments:
# Test in all cases: Eurofins KINOMEscan profiling, 97 kinases
# [1] = target: 97 kinases (kinase named in endpoint) (Homo sapiens, UniProt O14757); details: read-out: % Ctrl, CHEK1
# [2] = target: 97 kinases (kinase named in endpoint) (Homo sapiens, UniProt P08581); details: read-out: % Ctrl, MET
# Sequence of 97 kinases (kinase named in endpoint) (Homo sapiens, UniProt P08581) (P08581 25-1390): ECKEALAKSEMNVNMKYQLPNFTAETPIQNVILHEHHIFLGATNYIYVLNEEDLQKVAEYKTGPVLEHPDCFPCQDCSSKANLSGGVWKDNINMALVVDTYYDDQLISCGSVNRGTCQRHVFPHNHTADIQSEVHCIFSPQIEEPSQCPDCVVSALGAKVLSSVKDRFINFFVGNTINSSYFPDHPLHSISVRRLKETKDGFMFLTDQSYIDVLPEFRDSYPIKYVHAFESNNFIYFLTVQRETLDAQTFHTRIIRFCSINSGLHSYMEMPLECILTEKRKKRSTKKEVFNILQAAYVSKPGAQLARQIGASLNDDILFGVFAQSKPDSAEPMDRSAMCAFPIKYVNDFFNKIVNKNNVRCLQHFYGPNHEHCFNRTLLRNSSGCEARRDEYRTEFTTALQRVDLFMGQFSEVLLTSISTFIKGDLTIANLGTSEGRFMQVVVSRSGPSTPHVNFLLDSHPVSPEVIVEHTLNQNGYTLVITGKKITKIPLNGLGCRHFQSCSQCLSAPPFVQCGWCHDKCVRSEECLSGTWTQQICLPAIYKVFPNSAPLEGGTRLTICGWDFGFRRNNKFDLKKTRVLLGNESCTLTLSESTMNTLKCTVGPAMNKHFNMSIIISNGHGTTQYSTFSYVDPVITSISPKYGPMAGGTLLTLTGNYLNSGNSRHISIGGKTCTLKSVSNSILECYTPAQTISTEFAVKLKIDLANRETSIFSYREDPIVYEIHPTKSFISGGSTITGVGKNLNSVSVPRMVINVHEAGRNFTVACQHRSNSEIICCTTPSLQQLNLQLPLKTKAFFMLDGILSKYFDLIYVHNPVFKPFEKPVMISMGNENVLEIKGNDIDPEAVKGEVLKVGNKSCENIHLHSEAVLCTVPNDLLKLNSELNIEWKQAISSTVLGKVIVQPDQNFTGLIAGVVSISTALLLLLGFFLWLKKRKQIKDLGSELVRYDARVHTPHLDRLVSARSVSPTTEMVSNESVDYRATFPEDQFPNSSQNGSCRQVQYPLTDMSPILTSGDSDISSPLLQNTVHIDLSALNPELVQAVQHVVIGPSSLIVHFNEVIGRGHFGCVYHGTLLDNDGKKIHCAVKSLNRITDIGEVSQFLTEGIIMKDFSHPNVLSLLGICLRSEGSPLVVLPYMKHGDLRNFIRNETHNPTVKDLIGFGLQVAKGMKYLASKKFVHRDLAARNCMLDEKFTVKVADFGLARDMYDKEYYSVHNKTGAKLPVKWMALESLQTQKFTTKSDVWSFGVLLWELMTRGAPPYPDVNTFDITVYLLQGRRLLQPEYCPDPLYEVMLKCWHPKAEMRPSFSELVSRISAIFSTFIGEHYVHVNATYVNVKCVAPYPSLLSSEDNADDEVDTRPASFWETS
# [3] = target: 97 kinases (kinase named in endpoint) (Homo sapiens, UniProt Q00526); details: read-out: % Ctrl, CDK3
# Sequence of 97 kinases (kinase named in endpoint) (Homo sapiens, UniProt Q00526) (Q00526 whole entry): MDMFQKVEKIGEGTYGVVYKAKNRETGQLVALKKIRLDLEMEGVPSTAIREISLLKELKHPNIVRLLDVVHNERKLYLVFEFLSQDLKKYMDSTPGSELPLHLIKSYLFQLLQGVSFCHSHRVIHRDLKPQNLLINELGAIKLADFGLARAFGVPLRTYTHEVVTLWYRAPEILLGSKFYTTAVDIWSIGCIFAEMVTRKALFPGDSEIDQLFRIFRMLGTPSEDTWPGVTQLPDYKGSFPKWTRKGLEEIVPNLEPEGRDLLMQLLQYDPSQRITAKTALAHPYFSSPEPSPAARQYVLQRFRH
# [4] = target: 97 kinases (kinase named in endpoint) (Homo sapiens, UniProt P06213); details: read-out: % Ctrl, INSR
# [5] = target: 97 kinases (kinase named in endpoint) (Homo sapiens, UniProt P35968); details: read-out: % Ctrl, VEGFR2
# [6] = target: 97 kinases (kinase named in endpoint) (Homo sapiens, UniProt O96013); details: read-out: % Ctrl, PAK4
# Sequence of 97 kinases (kinase named in endpoint) (Homo sapiens, UniProt O96013) (O96013 whole entry): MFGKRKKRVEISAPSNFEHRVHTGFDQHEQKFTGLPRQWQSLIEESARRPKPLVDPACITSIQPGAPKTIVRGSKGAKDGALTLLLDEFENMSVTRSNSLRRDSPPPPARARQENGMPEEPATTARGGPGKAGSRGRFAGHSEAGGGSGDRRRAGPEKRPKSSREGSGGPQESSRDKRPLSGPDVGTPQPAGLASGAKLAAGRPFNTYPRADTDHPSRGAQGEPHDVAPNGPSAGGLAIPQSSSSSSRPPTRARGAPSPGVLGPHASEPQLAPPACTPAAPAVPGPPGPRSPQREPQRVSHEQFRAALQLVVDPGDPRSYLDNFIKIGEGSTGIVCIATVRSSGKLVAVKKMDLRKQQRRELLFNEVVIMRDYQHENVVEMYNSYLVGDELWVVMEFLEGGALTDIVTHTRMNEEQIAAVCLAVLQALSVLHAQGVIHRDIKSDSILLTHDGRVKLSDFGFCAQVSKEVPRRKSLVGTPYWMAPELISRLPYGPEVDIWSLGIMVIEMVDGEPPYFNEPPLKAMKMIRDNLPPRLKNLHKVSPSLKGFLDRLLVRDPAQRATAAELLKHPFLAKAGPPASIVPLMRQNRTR
# [7] = target: 97 kinases (kinase named in endpoint) (Homo sapiens, UniProt P00533, L858R); details: read-out: % Ctrl, EGFR(L858R)
# [8] = target: 97 kinases (kinase named in endpoint) (Homo sapiens, UniProt P12931); details: read-out: % Ctrl, SRC
# [9] = target: 97 kinases (kinase named in endpoint) (Homo sapiens, UniProt Q13153); details: read-out: % Ctrl, PAK1
# [10] = target: 97 kinases (kinase named in endpoint) (Homo sapiens, UniProt P10721); details: read-out: % Ctrl, KIT
# [11] = target: 97 kinases (kinase named in endpoint) (Homo sapiens, UniProt P04049); details: read-out: % Ctrl, RAF1
# [12] = target: 97 kinases (kinase named in endpoint) (Homo sapiens, UniProt P00533); details: read-out: % Ctrl, EGFR
# [13] = target: 97 kinases (kinase named in endpoint) (Homo sapiens, UniProt P27361); details: read-out: % Ctrl, ERK1
# [14] = target: 97 kinases (kinase named in endpoint) (Homo sapiens, UniProt O15111); details: read-out: % Ctrl, IKK-alpha
# [15] = target: 97 kinases (kinase named in endpoint) (Homo sapiens, UniProt P16234); details: read-out: % Ctrl, PDGFRA
# [16] = target: 97 kinases (kinase named in endpoint) (Homo sapiens, UniProt P36896); details: read-out: % Ctrl, ACVR1B
# Sequence of 97 kinases (kinase named in endpoint) (Homo sapiens, UniProt P36896) (P36896 24-505): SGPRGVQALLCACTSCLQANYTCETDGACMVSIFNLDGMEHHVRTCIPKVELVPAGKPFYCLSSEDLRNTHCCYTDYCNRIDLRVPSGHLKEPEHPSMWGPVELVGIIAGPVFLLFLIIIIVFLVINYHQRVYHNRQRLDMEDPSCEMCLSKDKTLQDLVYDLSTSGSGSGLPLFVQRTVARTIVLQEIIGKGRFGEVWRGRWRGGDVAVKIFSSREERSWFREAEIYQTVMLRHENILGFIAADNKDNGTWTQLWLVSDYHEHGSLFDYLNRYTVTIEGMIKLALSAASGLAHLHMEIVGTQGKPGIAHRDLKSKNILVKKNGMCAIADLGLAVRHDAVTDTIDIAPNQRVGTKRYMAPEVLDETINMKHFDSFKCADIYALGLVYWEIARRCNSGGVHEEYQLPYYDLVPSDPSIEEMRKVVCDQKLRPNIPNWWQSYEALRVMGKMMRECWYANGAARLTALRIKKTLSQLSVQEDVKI
# [17] = target: 97 kinases (kinase named in endpoint) (Homo sapiens, UniProt P50750); details: read-out: % Ctrl, CDK9
# [18] = target: 97 kinases (kinase named in endpoint) (Homo sapiens, UniProt P31751); details: read-out: % Ctrl, AKT2
# [19] = target: 97 kinases (kinase named in endpoint) (Homo sapiens, UniProt P08069); details: read-out: % Ctrl, IGF1R
# [20] = target: 97 kinases (kinase named in endpoint) (Homo sapiens, UniProt P15056); details: read-out: % Ctrl, BRAF
# [21] = target: 97 kinases (kinase named in endpoint) (Homo sapiens, UniProt Q86UX6); details: read-out: % Ctrl, YANK3
# Sequence of 97 kinases (kinase named in endpoint) (Homo sapiens, UniProt Q86UX6) (Q86UX6 whole entry): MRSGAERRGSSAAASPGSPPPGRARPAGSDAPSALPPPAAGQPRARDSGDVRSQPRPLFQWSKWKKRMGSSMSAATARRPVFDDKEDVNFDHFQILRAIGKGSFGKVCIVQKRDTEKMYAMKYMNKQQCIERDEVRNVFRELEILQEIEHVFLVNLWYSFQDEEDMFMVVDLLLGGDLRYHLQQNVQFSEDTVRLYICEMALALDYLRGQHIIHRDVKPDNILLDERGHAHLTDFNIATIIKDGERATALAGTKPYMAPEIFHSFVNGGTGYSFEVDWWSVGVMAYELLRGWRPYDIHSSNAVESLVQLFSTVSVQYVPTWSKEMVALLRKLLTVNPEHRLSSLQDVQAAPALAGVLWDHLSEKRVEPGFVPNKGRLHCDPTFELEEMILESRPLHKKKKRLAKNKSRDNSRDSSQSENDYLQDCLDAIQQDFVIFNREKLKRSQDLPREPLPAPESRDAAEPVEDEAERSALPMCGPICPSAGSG
# [22] = target: 97 kinases (kinase named in endpoint) (Homo sapiens, UniProt P48736); details: read-out: % Ctrl, PIK3CG
# [23] = target: 97 kinases (kinase named in endpoint) (Homo sapiens, UniProt Q9UPE1); details: read-out: % Ctrl, SRPK3
# [24] = target: 97 kinases (kinase named in endpoint) (Homo sapiens, UniProt Q8IYT8); details: read-out: % Ctrl, ULK2
# [25] = target: 97 kinases (kinase named in endpoint) (Homo sapiens, UniProt P45983); details: read-out: % Ctrl, JNK1
# Sequence of 97 kinases (kinase named in endpoint) (Homo sapiens, UniProt P45983) (P45983 whole entry): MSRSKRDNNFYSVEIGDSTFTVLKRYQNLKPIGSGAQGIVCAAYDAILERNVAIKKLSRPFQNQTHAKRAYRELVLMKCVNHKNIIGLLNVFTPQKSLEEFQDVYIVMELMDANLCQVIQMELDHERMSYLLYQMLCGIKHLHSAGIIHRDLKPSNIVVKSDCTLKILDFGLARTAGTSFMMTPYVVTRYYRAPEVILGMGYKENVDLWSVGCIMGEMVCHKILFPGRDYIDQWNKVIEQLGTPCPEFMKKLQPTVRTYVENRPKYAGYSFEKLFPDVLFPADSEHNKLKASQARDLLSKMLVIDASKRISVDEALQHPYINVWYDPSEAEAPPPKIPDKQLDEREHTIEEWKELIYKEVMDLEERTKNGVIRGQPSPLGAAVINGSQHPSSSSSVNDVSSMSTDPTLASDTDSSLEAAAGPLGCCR
# [26] = target: 97 kinases (kinase named in endpoint) (Homo sapiens, UniProt P17612); details: read-out: % Ctrl, PKAC-alpha
# [27] = target: 97 kinases (kinase named in endpoint) (Homo sapiens, UniProt P00519)
# Sequence of 97 kinases (kinase named in endpoint) (Homo sapiens, UniProt P00519) (P00519 whole entry): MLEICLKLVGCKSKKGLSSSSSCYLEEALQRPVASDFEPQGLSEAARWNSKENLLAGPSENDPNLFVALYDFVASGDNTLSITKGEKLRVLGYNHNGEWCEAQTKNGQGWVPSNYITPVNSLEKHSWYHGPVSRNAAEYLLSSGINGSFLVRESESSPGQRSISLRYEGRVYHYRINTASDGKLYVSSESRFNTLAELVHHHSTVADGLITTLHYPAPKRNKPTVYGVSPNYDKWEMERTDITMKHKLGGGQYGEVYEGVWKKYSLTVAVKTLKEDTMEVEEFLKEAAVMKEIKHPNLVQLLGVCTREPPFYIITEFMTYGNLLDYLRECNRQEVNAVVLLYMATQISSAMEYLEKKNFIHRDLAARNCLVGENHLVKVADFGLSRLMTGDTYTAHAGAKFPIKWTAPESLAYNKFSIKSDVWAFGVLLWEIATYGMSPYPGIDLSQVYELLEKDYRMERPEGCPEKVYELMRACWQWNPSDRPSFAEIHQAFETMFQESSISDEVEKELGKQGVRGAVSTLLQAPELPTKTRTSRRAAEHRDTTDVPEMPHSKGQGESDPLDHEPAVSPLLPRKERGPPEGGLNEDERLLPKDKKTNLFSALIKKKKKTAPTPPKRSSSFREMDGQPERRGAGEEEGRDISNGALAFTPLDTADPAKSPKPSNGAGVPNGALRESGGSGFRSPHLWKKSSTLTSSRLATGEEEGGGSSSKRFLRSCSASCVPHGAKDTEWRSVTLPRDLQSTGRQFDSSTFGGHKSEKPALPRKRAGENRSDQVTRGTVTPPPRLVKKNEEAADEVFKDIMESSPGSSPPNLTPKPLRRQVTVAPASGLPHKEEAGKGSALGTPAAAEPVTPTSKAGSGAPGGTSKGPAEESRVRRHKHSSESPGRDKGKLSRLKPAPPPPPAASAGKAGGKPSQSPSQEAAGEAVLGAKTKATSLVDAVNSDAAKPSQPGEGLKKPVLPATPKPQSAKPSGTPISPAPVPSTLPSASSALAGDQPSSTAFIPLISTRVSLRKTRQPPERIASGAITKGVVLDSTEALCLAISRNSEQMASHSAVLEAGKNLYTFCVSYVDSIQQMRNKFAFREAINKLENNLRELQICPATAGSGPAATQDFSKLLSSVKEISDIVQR
# [28] = target: 97 kinases (kinase named in endpoint) (Homo sapiens, UniProt Q13177); details: read-out: % Ctrl, PAK2
# [29] = read-out: % Ctrl, ABL1-nonphosphorylated
# [30] = read-out: % Ctrl, ABL1-phosphorylated
Compound,remaining binding at 1 µM [1],remaining binding at 1 µM [2],remaining binding at 1 µM [3],remaining binding at 1 µM [4],remaining binding at 1 µM [5],remaining binding at 1 µM [6],remaining binding at 1 µM [7],remaining binding at 1 µM [8],remaining binding at 1 µM [9],remaining binding at 1 µM [10],remaining binding at 1 µM [11],remaining binding at 1 µM [12],remaining binding at 1 µM [13],remaining binding at 1 µM [14],remaining binding at 1 µM [15],remaining binding at 1 µM [16],remaining binding at 1 µM [17],remaining binding at 1 µM [18],remaining binding at 1 µM [19],remaining binding at 1 µM [20],other results
CCCCCCCCCCCCCC(=O)N[C@@H](CC(N)=O)C(=O)N[C@@H](CC(C)C)C(=O)N[C@]1(C)CCCCCCC=CCCC[C@@](C)(C(=O)N[C@@H](CCC(=O)O)C(=O)N[C@@H](CC(C)C)C(=O)N[C@@H](CC(N)=O)C(N)=O)NC(=O)[C@H](CC(C)C)NC(=O)[C@H](CC(C)C)NC(=O)[C@H](CCCNC(=N)N)NC(=O)[C@H](CC(=O)O)NC(=O)[C@H](CC(C)C)NC(=O)[C@H](CCC(=O)O)NC1=O [compound 2012],98%,100%,89%,100%,100%,100%,99%,99%,100%,96%,81%,93%,100%,100%,100%,81%,100%,93%,100%,100%,"remaining binding at 1 µM [21]: 91%; remaining binding at 1 µM [22]: 99%; remaining binding at 1 µM [23]: 79%; remaining binding at 1 µM [24]: 100%; remaining binding at 1 µM [25]: 97%; remaining binding at 1 µM [26]: 91%; remaining binding at 1 µM [27, 29]: 56%; remaining binding at 1 µM [27, 30]: 80%; remaining binding at 1 µM [28]: 100%"
CNC(=O)c1ccc(Nc2ncc(C(F)(F)F)c(NCc3nccnc3N(C)S(C)(=O)=O)n2)cc1 [defactinib],99%,15%,62%,61%,37%,7.4%,81%,36%,65%,47%,86%,92%,88%,100%,82%,83%,90%,95%,71%,100%,"remaining binding at 1 µM [21]: 89%; remaining binding at 1 µM [22]: 85%; remaining binding at 1 µM [23]: 47%; remaining binding at 1 µM [24]: 28%; remaining binding at 1 µM [25]: 61%; remaining binding at 1 µM [26]: 72%; remaining binding at 1 µM [27, 29]: 37%; remaining binding at 1 µM [27, 30]: 51%; remaining binding at 1 µM [28]: 45%"
